Reference: patent US8124778B2, “Tricyclic inhibitors of fatty acid amide hydrolase” (The Scripps Research Institute, priority 2007, dated 2012)

Biological target: T1, purified recombinant rat FAAH (Rattus norvegicus, UniProt P97612)
T1 construct: The truncated rat FAAH (rFAAH) was expressed in E. coli and purified as described; made in house; host or cells: E. coli
T1 sequence (P97612 30-579 limits assumed): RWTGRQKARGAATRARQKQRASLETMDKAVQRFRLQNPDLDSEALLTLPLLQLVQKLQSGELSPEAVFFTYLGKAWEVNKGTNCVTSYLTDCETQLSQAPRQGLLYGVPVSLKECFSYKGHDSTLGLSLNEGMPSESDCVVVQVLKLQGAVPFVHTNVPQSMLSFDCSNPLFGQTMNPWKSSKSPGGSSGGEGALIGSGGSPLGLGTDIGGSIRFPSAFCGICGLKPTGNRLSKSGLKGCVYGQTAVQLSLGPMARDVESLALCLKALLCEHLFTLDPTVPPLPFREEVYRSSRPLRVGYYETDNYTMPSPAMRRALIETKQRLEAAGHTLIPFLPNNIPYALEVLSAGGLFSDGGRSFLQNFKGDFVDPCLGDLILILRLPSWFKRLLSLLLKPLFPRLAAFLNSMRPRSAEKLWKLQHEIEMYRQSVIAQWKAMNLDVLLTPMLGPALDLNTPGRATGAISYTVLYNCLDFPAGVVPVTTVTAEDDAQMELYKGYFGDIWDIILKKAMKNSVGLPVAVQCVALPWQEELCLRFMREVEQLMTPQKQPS
Test: FAAH inhibition enzyme assay (14C-oleamide hydrolysis, Dixon plot)
Format: biochemical
Details: rat FAAH
Protocol: Enzyme assays were performed at 20-23° C. with purified recombinant rat FAAH expressed in E. coli (Patricelli, M. P.; Lashuel, H. A.; et al. Biochemistry 1998, 37, 15177-15187) (unless indicated otherwise) or with solubilized COS-7 membrane extracts from cells transiently transfected with human FAAH cDNA (Giang, D. K.; Cravatt, B. F. Proc. Natl. Acad. Sci. U.S.A. 1997, 94, 2238-2242) (where specifically indicated) in a buffer of 125 mM Tris/1 mM EDTA/0.2% glycerol/0.02% Triton X-100/0.4 mM Hepes, pH 9.0 buffer (Patricelli, M. P.; Patterson, J. P.; et al. Bioorg. Med. Chem. Lett. 1998, 8, 613-618). The initial rates of hydrolysis (≦10-20% reaction) were monitored using enzyme concentrations at least three times below the measured Ki by following the breakdown of ^14C-oleamide and Ki's (standard deviations are provided in Supporting Information tables) were established as described (Dixon plot) (Boger, D. L.; Sato, H.; et al. Proc. Natl. Acad. Sci. U.S.A. 2000, 97, 5044-5049). Lineweaver-Burk analysis previously established reversible, competitive inhibition (Boger, D. L.; Miyauchi, H.; et al. J. Med. Chem. 2005, 48, 1849-1856).
FAAH Inhibition. ^14C-labeled oleamide was prepared from ^14C-labeled oleic acid as described (Cravatt, B. F.; et al. Science 1995, 268, 1506-1509). The truncated rat FAAH (rFAAH) was expressed in E. coli and purified as described (Patricelli, M. P.; Lashuel, H. A.; et al. Biochemistry 1998, 37, 15177-15187). The purified recombinant rFAAH was used in the inhibition assays unless otherwise indicated. The full-length human FAAH (hFAAH) was expressed in COS-7 cells as described (Giang, D. K.; Cravatt, B. F. Proc. Natl. Acad. Sci. U.S.A. 1997, 94, 2238-2242), and the lysate of hFAAH-transfected COS-7 cells was used in the inhibition assays where explicitly indicated.
The inhibition assays were performed as described (Cravatt, B. F.; et al. Science 1995, 268, 1506-1509). In brief, the enzyme reaction was initiated by mixing 1 nM of rFAAH (800, 500, or 200 pM rFAAH for inhibitors with Ki≦1-2 nM) with 10 μM of ^14C-labeled oleamide in 500 μL of reaction buffer (125 mM TrisCl, 1 mM EDTA, 0.2% glycerol, 0.02% Triton X-100, 0.4 mM Hepes, pH 9.0) at room temperature in the presence of three different concentrations of inhibitor. The enzyme reaction was terminated by transferring 20 μL of the reaction mixture to 500 μL of 0.1 N HCl at three different time points. The ^14C-labeled oleamide (substrate) and oleic acid (product) were extracted with EtOAc and analyzed by TLC as detailed (Cravatt, B. F.; et al. Science 1995, 268, 1506-1509). The Ki of the inhibitor was calculated using a Dixon plot as described (standard deviations are provided in the Supporting Information tables) (Boger, D. L.; Sato, H.; et al. Proc. Natl. Acad. Sci. U.S.A. 2000, 97, 5044-5049). Lineweaver-Burk analysis was performed as described confirming competitive, reversible inhibition (Boger, D. L.; Miyauchi, H.; et al. J. Med. Chem. 2005, 48, 1849-1856).

For `O=C(CCCCCCc1ccccn1)c1ncc(-c2ccccn2)o1` [5e, 1-Oxo-1-[5-(2-pyridyl)oxazol-2-yl]-7-(2-pyridyl)heptane], the “FAAH inhibitory potency (in words)” value was “reductions in the Ki”.

In the case of `O=C(CCCCCCc1cccnc1)c1ncc(-c2ccccn2)o1` [5f, 1-Oxo-1-[5-(2-pyridyl)oxazol-2-yl]-7-(3-pyridyl)heptane], the “FAAH inhibitory potency (in words)” value is reported as “reductions in the Ki”.
